# Like-named read-outs stand apart in the source and are kept apart here.
# How the values were obtained:
# [1] = system: HiBit-tagged Target C in K562 cells; assay: HiBiT protein abundance assay, Target C; assay type: cell-based, human; conditions: HiBiT-modified K562 cells, 24 hours, luminescence
# Description: (§1) Compounds described herein were used to screen for effects on quantitative protein abundance using a HiBit assay system (Promega). Quantitative protein abundance was determined by measuring the protein levels of HiBit-tagged protein targets expressed in cell culture via luminescence using the Nano-Glo HiBiT Lytic Detection System, which uses a split complementation assay format to reconstitute NanoBiT enzyme to generate a luminescent signal. A protein abundance assay was developed such that endogenous protein targets could be modified with the HiBiT peptide tag and their abundance could be assessed after compound treatment. Briefly, K562 cell lines containing a HiBiT-modification were treated with various compounds described herein (e.g., compounds of Formulas (I)). After treatment for 24 hours, the protein abundance of a specific target was determined by measuring luminescence.
# (§2) Cells were maintained in IMDM with 10% FBS. Before the assay, cells were diluted with […] growth media (IMDM+[…] media) and were seeded in a 384-well plate at a density of 10000 cells/well (for each cell line listed in Table 8). Each compound was prepared as a 10-point 3-fold serial dilution in DMSO with the top dose at a final concentration of 10 μM in the well. Unmodified K562 cells were added at the previously specified density with DMSO to serve as an assay baseline and positive control (PC) and DMSO only with the respective modified cell lines was added to the negative control (NC) columns. Final DMSO concentration was kept at or below 0.25% o. Treated cell plates were placed in an incubator at 37° C. with […] for 24 hours. After 24 hours, 25 μL of Complete HiBit Lytic reagent was added to each well at room temperature (e.g. one plate requiring 10 mL Lytic Buffer, 100 μL LgBiT Protein, 200 μL Lytic Substrate), shaken for 5 minutes at 600 RPM, then left to sit for 10 minutes for signal to stabilize before reading on a Spark Cyto plate reader (Tecan) with a 500 ms measurement time.
# (§3) To determine compound effects on protein abundance of each target in Table 9, the percent response for each respective cell line was calculated at each compound concentration as follows:
# (§4) For the normalized response at each concentration, a four-parameter logistical regression was fit to the data and the response was interpolated at the […] to determine a concentration for protein abundance at 50% o (IC50) the untreated control.
# SMN2 = assay: Gene panel canonical junction qPCR assay, SMN2 CJ mRNA (Table 7); assay type: cell-based; conditions: Homo sapiens, read-out: SMN2 CJ mRNA decrease IC50
# Method in brief: (§5)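 Canonical-junction transcript decrease reported as IC50 from a 4-parameter logistic fit of percentage response, derived from 2^(−ΔΔCt) versus housekeeper (GAPDH/GUSB/PPIA) and DMSO control using preset ΔCt windows. Readout by cDNA synthesis and qPCR with exon-junction-overlapping probesets in compound-treated K562 or A673 cells.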
# [2] = system: HiBit-tagged HTT in K562 cells; assay: HiBiT protein abundance assay, HTT; assay type: cell-based, human; conditions: HiBiT-modified K562 cells, 24 hours, luminescence
# Description: as §1, §2, §3, §4
# HTT = assay: Gene panel canonical junction qPCR assay, HTT CJ mRNA (Table 7); assay type: cell-based, human; conditions: read-out: HTT CJ mRNA decrease IC50
# Method in brief: as §5
# Target C = assay: Gene panel canonical junction qPCR assay, Target C CJ mRNA (Table 7); assay type: cell-based, human; conditions: read-out: Target C CJ mRNA decrease IC50
# Method in brief: as §5
# MYB = assay: Gene panel canonical junction qPCR assay, MYB CJ mRNA (Table 7); assay type: cell-based; conditions: Homo sapiens, read-out: MYB CJ mRNA decrease IC50
# Method in brief: as §5
Compound,IC50 [1],IC50 (SMN2),IC50 [2],IC50 (HTT; Homo sapiens),IC50 (Target C; Homo sapiens),IC50 (MYB),IC50 (HTT),IC50 (Target C)
CN(c1ccc2c(n1)OCc1cc(-n3cccn3)ccc1-2)[C@@H]1C[C@H]2CC[C@@H](C1)N2 [Compound 149],100 to 1000 nM,100 to 1000 nM,100 to 1000 nM,100 to 1000 nM,100 to 1000 nM,100 to 1000 nM,,
CN(c1ccc2c(n1)CCOc1cc(-n3cccn3)ccc1-2)C1CC(C)(C)NC(C)(C)C1 [Compound 129],> 10000 nM,> 10000 nM,> 10000 nM,> 10000 nM,> 10000 nM,> 10000 nM,,
"COc1cc(-c2ccc3c(c2)COc2nc(O[C@@H]4C[C@H]5COC[C@@H](C4)N5)ccc2-3)cnn1 [Compound 290, (exo)-7-{[8-(6-methoxypyridazin-4-yl)-6H-isochromeno[3,4-b]pyridin-3-yl]oxy}-3-oxa-9-azabicyclo[3.3.1]nonane]",< 100 nM,< 100 nM,< 100 nM,< 100 nM,100 to 1000 nM,100 to 1000 nM,,
CN(c1ccc2c(n1)COc1cc(-n3cccn3)ccc1-2)C1CC(C)(C)NC(C)(C)C1 [Compound 125],1000 to 10000 nM,> 10000 nM,1000 to 10000 nM,> 10000 nM,> 10000 nM,> 10000 nM,,
Cc1ncc(-c2ccc3c(c2)COc2nc(N(C)[C@@H]4C[C@H]5CC[C@@H](C4)N5)ccc2-3)o1 [Compound 155],< 100 nM,< 100 nM,< 100 nM,< 100 nM,100 to 1000 nM,100 to 1000 nM,,
CN(c1ccc2c(c1)CCOc1cc(-n3cccn3)ccc1-2)[C@@H]1C[C@H]2CC[C@@H](C1)N2 [Compound 113],> 10000 nM,> 10000 nM,> 10000 nM,> 10000 nM,> 10000 nM,> 10000 nM,,
CN(c1ccc2c(n1)OCc1cc(-n3cccn3)ccc1-2)C1CC(C)(C)NC(C)(C)C1 [Compound 148],1000 to 10000 nM,100 to 1000 nM,1000 to 10000 nM,1000 to 10000 nM,1000 to 10000 nM,1000 to 10000 nM,,
c1cc2c(cc1-c1cn[nH]c1)COc1nc(N3CCC34CCNC4)ccc1-2 (stereo not drawn) [Compound 207],1000 to 10000 nM,> 10000 nM,1000 to 10000 nM,> 10000 nM,> 10000 nM,1000 to 10000 nM,,
CN(c1ccc2c(n1)OCc1cc(-c3cn[nH]c3)ccc1-2)C1CCNCC1 [Compound 116],1000 to 10000 nM,100 to 1000 nM,100 to 1000 nM,100 to 1000 nM,100 to 1000 nM,1000 to 10000 nM,,
CN(c1ccc2c(n1)OCc1cc(-c3cnn(C)c(=O)c3)ccc1-2)[C@@H]1C[C@H]2CC[C@@H](C1)N2 [Compound 160],< 100 nM,< 100 nM,< 100 nM,< 100 nM,< 100 nM,100 to 1000 nM,,
COc1cc(-c2ccc3c(c2)COc2nc(N4CCC(N5CCCC5)C4)ccc2-3)cnn1 (stereo not drawn) [Compound 305],100 to 1000 nM,100 to 1000 nM,100 to 1000 nM,100 to 1000 nM,1000 to 10000 nM,1000 to 10000 nM,,
c1cc2c(cc1-c1cn[nH]c1)COc1nc(N[C@@H]3C[C@H]4CC[C@@H](C3)N4)cnc1-2 [Compound 143],100 to 1000 nM,100 to 1000 nM,100 to 1000 nM,100 to 1000 nM,100 to 1000 nM,100 to 1000 nM,,
CN(c1ccc2c(n1)OCc1cc(-n3ccnc3)ccc1-2)[C@@H]1C[C@H]2CC[C@@H](C1)N2 [Compound 163],< 100 nM,< 100 nM,< 100 nM,< 100 nM,100 to 1000 nM,100 to 1000 nM,,
CN(c1cnc2c(n1)OCc1cc(-c3cn[nH]c3)ccc1-2)C1CC(C)(C)NC(C)(C)C1 [Compound 142],1000 to 10000 nM,100 to 1000 nM,100 to 1000 nM,,,100 to 1000 nM,100 to 1000 nM,1000 to 10000 nM
CN(c1ccc2c(n1)OCc1cc(-c3ccc(=O)[nH]c3)ccc1-2)[C@@H]1C[C@H]2CC[C@@H](C1)N2 [Compound 157],1000 to 10000 nM,100 to 1000 nM,100 to 1000 nM,1000 to 10000 nM,1000 to 10000 nM,1000 to 10000 nM,,
Cc1ncc(-c2ccc3c(c2)COc2nc(O[C@@H]4C[C@H]5C[C@@H](C4)N5)ccc2-3)s1 [Compound 208],< 100 nM,< 100 nM,< 100 nM,< 100 nM,100 to 1000 nM,100 to 1000 nM,,
CN(c1ccc2c(n1)OCc1cc(-c3ccc(=O)n(C)c3)ccc1-2)[C@@H]1C[C@H]2CC[C@@H](C1)N2 [Compound 158],1000 to 10000 nM,100 to 1000 nM,< 100 nM,100 to 1000 nM,100 to 1000 nM,100 to 1000 nM,,
CN(c1ccc2c(n1)OCc1cc(-c3cc(=O)n(C)cn3)ccc1-2)[C@@H]1C[C@H]2CC[C@@H](C1)N2 [Compound 162],< 100 nM,< 100 nM,< 100 nM,< 100 nM,< 100 nM,100 to 1000 nM,,
CN(c1ccc2c(n1)COc1cc(-n3cccn3)ccc1-2)[C@@H]1C[C@H]2CC[C@@H](C1)N2 [Compound 124],1000 to 10000 nM,1000 to 10000 nM,1000 to 10000 nM,1000 to 10000 nM,1000 to 10000 nM,1000 to 10000 nM,,
CN(c1ccc2c(n1)OCc1cc(-c3cnc(=O)[nH]c3)ccc1-2)[C@@H]1C[C@H]2CC[C@@H](C1)N2 [Compound 161],> 10000 nM,> 10000 nM,> 10000 nM,> 10000 nM,> 10000 nM,> 10000 nM,,
COc1cc(-c2ccc3c(c2)COc2nc(N(C)[C@@H]4C[C@H]5CC[C@@H](C4)N5)ccc2-3)cnn1 [Compound 159],< 100 nM,< 100 nM,< 100 nM,< 100 nM,< 100 nM,< 100 nM,,
Cc1cn(-c2ccc3c(c2)COc2nc(N(C)[C@@H]4C[C@H]5CC[C@@H](C4)N5)ccc2-3)cn1 [Compound 164],< 100 nM,< 100 nM,< 100 nM,< 100 nM,100 to 1000 nM,100 to 1000 nM,,
CN(c1ccc2c(n1)COc1cc(-c3cn[nH]c3)ccc1-2)[C@@H]1C[C@H]2CC[C@@H](C1)N2 [Compound 121],100 to 1000 nM,100 to 1000 nM,< 100 nM,100 to 1000 nM,100 to 1000 nM,1000 to 10000 nM,,
CC(C)Oc1cnnc(-c2ccc3c(c2)COc2nc(N4CCC(NC(C)(C)C)C4)ccc2-3)c1 (stereo not drawn) [Compound 286],1000 to 10000 nM,> 10000 nM,1000 to 10000 nM,> 10000 nM,> 10000 nM,> 10000 nM,,
CN(c1ccc2c(n1)OCc1cc(-c3cn[nH]c3)ccc1-2)[C@@H]1C[C@H]2CC[C@@H](C1)N2 [Compound 108],< 100 nM,< 100 nM,< 100 nM,< 100 nM,< 100 nM,100 to 1000 nM,,
CN(c1ccc2c(n1)OCCc1cc(-c3cn[nH]c3)ccc1-2)C1CC(C)(C)NC(C)(C)C1 [Compound 145],1000 to 10000 nM,1000 to 10000 nM,1000 to 10000 nM,> 10000 nM,1000 to 10000 nM,1000 to 10000 nM,,
COc1cc(-c2ccc3c(c2)COc2nc(N(C)[C@@H]4C[C@H]5CC[C@@H](C4)N5)ccc2-3)ccn1 [Compound 156],100 to 1000 nM,100 to 1000 nM,< 100 nM,< 100 nM,100 to 1000 nM,100 to 1000 nM,,
CN(c1ccc2c(n1)OCc1cc(-n3nccn3)ccc1-2)[C@@H]1C[C@H]2CC[C@@H](C1)N2 [Compound 151],< 100 nM,< 100 nM,< 100 nM,< 100 nM,100 to 1000 nM,100 to 1000 nM,,
CN(c1ccc2c(n1)OCCc1cc(-c3cn[nH]c3)ccc1-2)[C@@H]1C[C@H]2CC[C@@H](C1)N2 [Compound 146],1000 to 10000 nM,> 10000 nM,1000 to 10000 nM,1000 to 10000 nM,> 10000 nM,> 10000 nM,,
